Experimental data from US6753150B2, “Method for determining whether a compound is capable of inhibiting the interaction of a peptide with rage” (The Trustees of Columbia University in the City of New York, priority 1998, dated 2004).

Legend:
sRAGE [1] = biological target: T1, sRAGE (Homo sapiens, UniProt Q15109); test: Radioligand competition: 125I-sRAGE (100 nM) binding to immobilized CML-BSA with competitors; conditions: competitor in excess
T1 construct: full length soluble RAGE (100 nM; specific activity 7,000-8,000 cpm/ng)
T1 sequence (Q15109 23-342 limits assumed): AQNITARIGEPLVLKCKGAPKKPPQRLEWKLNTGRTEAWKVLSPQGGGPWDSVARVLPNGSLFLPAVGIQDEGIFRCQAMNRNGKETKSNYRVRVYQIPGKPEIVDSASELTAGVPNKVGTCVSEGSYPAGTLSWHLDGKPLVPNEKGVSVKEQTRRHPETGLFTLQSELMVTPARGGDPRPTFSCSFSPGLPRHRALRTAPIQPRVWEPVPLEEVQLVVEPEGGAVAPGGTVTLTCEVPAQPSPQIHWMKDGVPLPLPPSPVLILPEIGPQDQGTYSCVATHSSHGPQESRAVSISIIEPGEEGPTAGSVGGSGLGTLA
Method: Radioligand binding studies: competition experiments. CML-BSA was immobilized to wells; binding was performed with ^125-I sRAGE (100 nM) with the indicated competitors. […] Percent maximal binding is reported compared to binding to immobilized CML-BSA without competitor (100%).
Radioligand binding studies: CML-adducts interact with the V-type Ig domain of RAGE. CML-BSA was immobilized to wells; binding was performed with ^125-I sRAGE (100 nM) in the presence or absence of excess unlabelled (100-fold) V-type Ig domain, C1 Ig domain or C2 Ig domain. Percent maximal binding is reported compared to binding to immobilized CML-BSA without competitor (100%).
Radioligand binding assays. […] All materials were devoid of endotoxin using the Detoxi-gel system (PIERCE®) and tested for negativity in the limulus amebocyte assay (SIGMA®). Gas chromatography-mass spectroscopy and HPLC analyses were performed and verified the identity of the prepared AGES. Specific AGE or control protein (5 μg) was loaded onto the wells of a NUNC MAXISORP® dish in sodium bicarbonate/sodium carbonate buffer (pH 9.8) overnight at 4° C. […] The material retrieved was then counted in a gamma counter (LKB). […]
Radioligand binding studies. […] Radioligand binding assays were performed as described and equilibrium binding data was analyzed according to the equation of Klotz and Hunston.

RAGE = RAGE (Homo sapiens, UniProt Q15109); test: Binding of CML-modified proteins to immobilized RAGE (Example 2); conditions: for Kd: dose-dependent and saturable
Sequence of RAGE (Q15109 23-404): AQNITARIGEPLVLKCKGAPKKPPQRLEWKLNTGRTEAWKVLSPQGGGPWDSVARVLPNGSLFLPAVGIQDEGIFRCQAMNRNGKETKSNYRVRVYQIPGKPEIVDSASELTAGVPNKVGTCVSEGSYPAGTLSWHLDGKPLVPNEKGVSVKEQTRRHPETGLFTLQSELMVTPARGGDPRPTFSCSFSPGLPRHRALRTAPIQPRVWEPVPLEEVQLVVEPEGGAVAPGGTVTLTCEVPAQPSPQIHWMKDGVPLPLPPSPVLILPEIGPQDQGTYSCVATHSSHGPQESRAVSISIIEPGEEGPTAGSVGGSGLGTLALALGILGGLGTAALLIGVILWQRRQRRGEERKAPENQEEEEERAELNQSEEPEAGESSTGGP
Text: (§1) Advanced glycation endproducts (AGEs) are heterogeneous compounds that form in hyperglycemia, highly-oxidized environments and renal failure. AGEs accumulate in the plasma and tissues of patients with diabetes; their presence has been linked to the development of medical complications. Interaction of AGEs with Receptor for AGE ([…]) activates cells such as endothelial cells (Ecs) and monocytes (Mps) in a manner favoring the development of vascular/inflammatory cell complications. AGEs consist of structures such as carboxymethyl-lysine and pentosidine (both free and protein-bound forms). To begin to delineate which AGE forms interact with RAGE, we prepared free CML and pentosidine, as well as CML- and pentosidine bovine serum albumin (BSA) and ovalbumin (OVA).

[2] = system: Human umbilical vein endothelial cells (HUVEC); test: Molt-4 binding assay on stimulated endothelial cells (cell surface VCAM-1 functional activity); assay type: cell-based; conditions: for binding of Molt-4 cells to Ecs: Example 2
Method: FIG. 4. Cellular activation studies: endothelial cells. HUVEC were incubated in the presence of the indicated mediators for 6 hrs. Where indicated, certain cells were preincubated with anti-RAGE/preimmune IgG for one hour. Cells were washed and incubated with ^51Cr-Molt-4 cells (bear VLA-4) for 1 hr. Bound radioactivity was eluted in the presence of SDS (1%) and counted in a gamma counter. Results are reported compared with Molt-4 cell binding to cells exposed to native ovalbumin (defined as “1”).
Molt-4 binding assays. Molt-4 binding assays were performed according to the general method of Marui et al (32). Human umbilical vein endothelial cells were stimulated with the indicated compound in the presence or absence of competitors for 6 hrs at 37° C. Molt-4 cells, which express VLA-4, ligand for VCAM-1, (ATCC) were grown in RPMI 1640 containing fetal bovine serum (10%). Radio labelling was accomplished by incubating Molt-4 cells (2×10^7 cells/ml) for 16 hrs at 37° C. in the above medium containing ^51-Cr (0.2 mCi/ml). Before the binding assay, unincorporated radioactivity was removed by washing cells with Hank's balanced salt solution, and then resuspending them in RPMI containing fetal bovine serum (10%) at 4×10^6 cells/ml. Molt-4 cells were incubated with endothelial cells for one hr at 37° C., and nonadherent cells were removed by washing twice with Medium 199 containing fetal bovine serum (1%); adherent cells were solubilized in SDS (1%), and radioactivity counted in a gamma counter.
To test if incubation of CML-ovalbumin or pentosidine-ovalbumin activated EC, specific AGEs were rendered free of endotoxin (Detoxigel columns (PIERCE®)) and tested for absence of endotoxin by limulus amebocyte assay (SIGMA®).

NF-κB [3] = test: Electrophoretic mobility shift assay for NF-κB in endothelial cells; assay type: cell-based, human; conditions: for nuclear translocation / activation of NF-κB in HUVEC: 6 hrs, AGEs at 50 μg/ml; for activation of NF-κB in Ecs: Example 2
Method: FIG. 6. Electrophoretic mobility shift assay. Human umbilical vein endothelial cells (HUVEC) were incubated with mediators for 6 hrs; nuclear extracts were prepared and electrophoretic mobility shift assays performed with ^32P-labelled probe for NF-κB. Lanes contain mediators as above (all AGEs were added at 50 μg/ml). Lanes contain: lane 1, CML-ovalbumin; lane 2, native ovalbumin; lane 3, pentosidine ovalbumin; lane 4, nonimmune IgG and CML ovalbumin; lane 5, anti-RAGE IgG: 7 μg/ml; lane 6; anti-RAGE IgG: 70 μg/ml; lane 7: CML-ovalbumin/100-fold excess unlabelled NF-κB. Supershift assays (lane 8: anti-p50 IgG; lane 9:anti-p65 IgG; lane 10:both anti-p50 IgG and anti-p65 IgG; lane 11: preimmune IgG), all + CML-ovalbumin. Lane 12:CML-ovalbumin: vector alone/13:tail-deleted RAGE.
Electrophoretic mobility shift assays (EMSA). Nuclear extracts were prepared from HUVECs by the method of Schreiber (33). Protein concentration was determined using the Bradford reagent (BIO-RAD®). Double-stranded oligonucleotides representing a portion of the human VCAM-1 promoter containing an NF-κB site were synthesized (Life Technologies). Oligonucleotides were used as probe as follows: NF-κB: 5′[…]3′ (SEQ ID No. 1). Probes were 5′-end labelled with g-[^32P] ATP and polynucleotide kinase. Each reaction contained 10 fmol of probe and 2-5 microliter (1.5 μg) of nuclear extract. Binding reactions were performed in buffer as previously described (19). Complexes were resolved on nondenaturing polyacrylamide gels (6%) in tris (50 mM), borate (45 mM), and EDTA (0.5 mM), ([…]; final pH 7.5). Samples were subjected to electrophoresis for 2 hrs at 10 V/cm. For supershift assays, complexes were preincubated with anti-p65 IgG, anti-p50 IgG or both together, or nonimmune IgG (7.5 μg/ml; 2 hrs 37° C.) in a total reaction volume of 20 μl.
We tested the ability of CML-ovalbumin to ligate RAGE and activate cell signalling pathways.

sRAGE [4] = biological target: T1, sRAGE; test: Radioligand binding of 125I-sRAGE to immobilized AGE-modified proteins (dose response); conditions: for specific binding to sRAGE/RAGE: immobilized AGE-protein, 125I-sRAGE
Method: Radioligand binding studies: dose response experiments. CML- or pentosidine BSA (5 μg) was immobilized to plastic wells and radioligand binding assays performed with increasing concentrations of purified ^125-I sRAGE +/− excess unlabelled sRAGE (50-fold molar excess). Bound tracer was eluted with buffer containing NP40 (1%) and NaCl (0.15M) and the data subjected to analysis as described in the Experimental Details section.
Radioligand binding assays. […] All materials were devoid of endotoxin using the Detoxi-gel system (PIERCE®) and tested for negativity in the limulus amebocyte assay (SIGMA®). […] Specific AGE or control protein (5 μg) was loaded onto the wells of a NUNC MAXISORP® dish in sodium bicarbonate/sodium carbonate buffer (pH 9.8) overnight at 4° C. The following morning, wells were aspirated and blocked with phosphate buffered saline (with calcium/magnesium) containing bovine serum albumin (1%) for two hrs at 37° C. Wells were then washed once with phosphate buffered saline (without calcium/magnesium) containing Tween 20 (0.05%); 0.150 ml/well. A radioligand binding assay was then performed in phosphate buffered saline containing 0.2% bovine serum albumin for 2 hrs at 37° C. utilizing radiolabelled (^125I; using Iodogen (Pierce)) full length soluble RAGE (100 nM; specific activity 7,000-8,000 cpm/ng) in the presence or absence of unlabelled soluble RAGE (50×molar excess) or the indicated molar excess of competitor. Wells were then eluted after washing as above with buffer containing NP-40 (1%) and NaCl (0.15M). The material retrieved was then counted in a gamma counter (LKB). In certain experiments, antibodies or excess soluble RAGE were employed as indicated to test their ability to compete in the indicated assays.
Radioligand binding studies. […] Radioligand binding assays were performed in which CML-BSA, pentosidine-BSA or methylglyoxal-human serum albumin was adsorbed to plastic wells. Radioligand binding assays were performed as described and equilibrium binding data was analyzed according to the equation of Klotz and Hunston.

VCAM-1 = test: Infusion into normal mice, Northern analysis of VCAM-1 mRNA in lung; assay type: in vivo; conditions: 100 μg infused into CD1 mice, six hrs, Northern blot
Method: FIG. 7. In vivo studies: infusion of CML-BSA into mice modulates […] expression. CML-BSA (lane 2) or native BSA (lane 1) (both 100 μg) was infused into normal CD1 mice. LPS (100 μg) was infused as positive control (lane 3). Six hrs later, mice were humanely sacrificed and lungs rapidly removed for preparation of RNA. Northern analysis was performed as described above for VCAM-1; membranes were then stripped and reprobed with ^32-P-labelled cDNA for G3PDH.
Northern blot analysis. Northern blot analysis for VCAM-1 and G3PDH were performed as previously described (19).
Infusion of CML-BSA into normal mice increases mRNA for Vascular Cell Adhesion Molecule-1.

NF-κB [5] = test: NF-κB activation in monocytes (MPs) (Example 2); assay type: cell-based
Text: as §1

[6] = system: human peripheral blood-derived mononuclear phagocytes; test: Monocyte chemotaxis assay in modified chemotaxis chambers; assay type: cell-based; conditions: mediator in lower wells, three hrs
Method: FIG. 5. Cellular activation studies: mononuclear phagocytes. Human monocytes (5×10^4) were placed in the upper wells of modified chemotaxis chambers with the indicated mediators in the lower wells for three hrs. Membranes were then stained with Giemsa and cells that migrated through the membrane toward the chemotactic stimulus counted per hpf.
Chenotaxis assays. Chemotaxis assays, performed in 48-well microchemotaxis chambers (Neuro-Probe) containing polycarbonate membranes were performed as previously described (15). In these studies, human peripheral blood-derived mononuclear phagocytes, which bear cell surface RAGE, were employed.
Mononuclear phagocytes. To determine if CML-ovalbumin mediated increased human peripheral blood-derived monocyte chemotaxis, experiments were performed in modified chemotaxis chambers as described above.

## N[C@@H](CCCCn1cccc2nc(NCCC[C@H](N)C(=O)O)nc1-2)C(=O)O [free pentosidine, Pentosidine]
sRAGE [1]
  effect on binding of 125I-sRAGE to immobilized CML-BSA: no effect
RAGE
  effect on binding of CML-BSA and CML-OVA to immobilized RAGE: not

## pentosidine-ovalbumin: pentosidine-modified ovalbumin
[2]; HUVEC exposed 6 hrs
  effect on binding of 51Cr-Molt 4 cells to HUVEC: without effect
NF-κB [3]
  nuclear translocation / activation of NF-κB in HUVEC: not

## CML-BSA: carboxymethyl-lysine-modified bovine serum albumin, a synthetic AGE
sRAGE [4]; read-out: KD of binding to sRAGE, AGE-protein (5 μg) immobilized on wells, increasing 125I-sRAGE +/- 50-fold excess unlabelled sRAGE
  Kd: ~76 nM
VCAM-1
  mRNA for VCAM-1 in lung tissue: increased mRNA for VCAM-1
RAGE
  Kd: 60 nM
NF-κB [5]
  activation of NF-κB in MPs: activated NF-κB

## N[C@@H](CCCCNCC(=O)O)C(=O)O [free CML, N^e-(Carboxymethyl)lysine]
sRAGE [4]
  specific binding to sRAGE/RAGE: not
sRAGE [1]
  effect on binding of 125I-sRAGE to immobilized CML-BSA: no effect
RAGE
  effect on binding of CML-BSA and CML-OVA to immobilized RAGE: not

## unmodified BSA: unmodified bovine serum albumin control protein
VCAM-1
  mRNA for VCAM-1 in lung tissue: without effect
RAGE
  effect on binding of CML-BSA and CML-OVA to immobilized RAGE: not

## CML-ovalbumin: carboxymethyl-lysine-modified ovalbumin, a synthetic AGE
[2]
  binding of Molt-4 cells to Ecs: increased binding of Molt-4 cells
[2]; HUVEC exposed 6 hrs, relative to native ovalbumin (defined as 1)
  increase in binding of 51Cr-Molt 4 cells to HUVEC: 2.3 fold
[6]
  monocyte chemotaxis: stimulated monocyte chemotaxis in a dose-dependent manner
NF-κB [3]
  nuclear translocation / activation of NF-κB in HUVEC: increased nuclear translocation of NF-κB
  activation of NF-κB in Ecs: activated NF-κB
NF-κB [5]
  activation of NF-κB in MPs: activated NF-κB

## native ovalbumin: unmodified ovalbumin control protein
[2]; HUVEC exposed 6 hrs
  effect on binding of 51Cr-Molt 4 cells to HUVEC: without effect
[6]
  monocyte chemotaxis: without effect
NF-κB [3]
  nuclear translocation / activation of NF-κB in HUVEC: not

## pentosidine-BSA: pentosidine-modified bovine serum albumin
sRAGE [4]
  specific binding to sRAGE/RAGE: no specific binding
[2]
  binding of Molt-4 cells to Ecs: without effect
[6]
  monocyte chemotaxis: without effect
NF-κB [3]
  activation of NF-κB in Ecs: without effect
NF-κB [5]
  activation of NF-κB in MPs: without effect

B1: CML-ovalbumin: carboxymethyl-lysine-modified ovalbumin, a synthetic AGE (protein, UniProt P01012 2-386, looked up)
Ovalbumin: GSIGAASMEFCFDVFKELKVHHANENIFYCPIAIMSALAMVYLGAKDSTRTQINKVVRFDKLPGFGDSIEAQCGTSVNVHSSLRDILNQITKPNDVYSFSLASRLYAEERYPILPEYLQCVKELYRGGLEPINFQTAADQARELINSWVESQTNGIIRNVLQPSSVDSQTAMVLVNAIVFKGLWEKAFKDEDTQAMPFRVTEQESKPVQMMYQIGLFRVASMASEKMKILELPFASGTMSMLVLLPDEVSGLEQLESIINFEKLTEWTSSNVMEERKIKVYLPRMKMEEKYNLTSVLMAMGITDVFSSSANLSGISSAESLKISQAVHAAHAEINEAGREVVGSAEAGVDAASVSEEFRADHPFLFCIKHIATNAVLFFGRCVSP
modifications: carboxymethyl-lysine modified
notes: carboxymethyl-lysine-modified ovalbumin, a synthetic AGE
RAGE
  Kd: 60 nM

B2: native ovalbumin: unmodified ovalbumin control protein (protein, UniProt P01012 2-386, looked up)
Ovalbumin: GSIGAASMEFCFDVFKELKVHHANENIFYCPIAIMSALAMVYLGAKDSTRTQINKVVRFDKLPGFGDSIEAQCGTSVNVHSSLRDILNQITKPNDVYSFSLASRLYAEERYPILPEYLQCVKELYRGGLEPINFQTAADQARELINSWVESQTNGIIRNVLQPSSVDSQTAMVLVNAIVFKGLWEKAFKDEDTQAMPFRVTEQESKPVQMMYQIGLFRVASMASEKMKILELPFASGTMSMLVLLPDEVSGLEQLESIINFEKLTEWTSSNVMEERKIKVYLPRMKMEEKYNLTSVLMAMGITDVFSSSANLSGISSAESLKISQAVHAAHAEINEAGREVVGSAEAGVDAASVSEEFRADHPFLFCIKHIATNAVLFFGRCVSP
RAGE
  effect on binding of CML-BSA and CML-OVA to immobilized RAGE: not
